Strand notation (5' to 3'): a small letter for the sugar, then the base; units joined by * are phosphorothioate-linked, units joined directly phosphodiester-linked; [ ] holds rarer units or linkages, { } end groups; capitals alone tell only the bases. k = constrained ethyl (cEt); [5mC] = 5-methylcytosine; d = 2'-deoxy (DNA)

For one data set, the system named is Yap1 mRNA. As to the kind of experiment: Antisense inhibition of human Yap1 in A-431 cells by cEt gapmers, single dose (Example 2, RTS4814). The conditions noted are these: A-431 cells, 5,000 cells per well, free uptake, 2,000 nM modified oligonucleotide, approx. 48 hours, RTS4814, normalized to RIBOGREEN; Table 4; asterisk (*) = targets amplicon region of primer probe set. The data set is classed as cell-based. The method, boiled down: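 A-431 cells (5,000/well) took up 2,000 nM 3-10-3 cEt gapmer by free uptake for ~48 h. Yap1 mRNA was quantified by qRT-PCR with primer probe set RTS4814, normalized to RIBOGREEN total RNA, and reported as % of untreated control.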
Take “716490 (kA*k[5mC]*kA*dA*d[5mC]*d[5mC]*dA*dA*d[5mC]*dT*dA*dT*dT*kA*k[5mC]*kT; antisense) [Compound 716490]”: the “YAP1 (% UTC)” value was 63 % UTC.

In the case of “716415 (kA*kG*k[5mC]*dT*d[5mC]*d[5mC]*dT*d[5mC]*dT*d[5mC]*d[5mC]*dT*dT*k[5mC]*kT*kA; antisense) [Compound 716415]”, the “YAP1 (% UTC)” value was determined as 90 % UTC.

As for “716418 (k[5mC]*k[5mC]*kT*dG*dA*dG*dG*dG*d[5mC]*dT*d[5mC]*dT*dA*kT*kA*kA; antisense) [Compound 716418]”, the “YAP1 (% UTC)” value was found to be 75 % UTC.

The data set is the same for the next values; noted with them: Table 5; A-431 cells, 5,000 cells per well, free uptake, 2,000 nM modified oligonucleotide, approx. 48 hours; RTS4814; normalized to RIBOGREEN; Yap1 mRNA relative to untreated control cells.
For “716536 (antisense kA*kA*kG*dT*dA*dG*dA*dT*d[5mC]*dT*dA*dA*dG*kA*kA*kG) [Compound 716536]”, the “YAP1 (% UTC)” value came to 94 % UTC.

Turning to “716572 (k[5mC]*kA*kG*dT*dA*dA*dG*dA*dA*dG*d[5mC]*d[5mC]*dA*kA*kA*kA; antisense) [Compound 716572]”, the “YAP1 (% UTC)” value is listed as 122 % UTC.

As for “716449 (kG*kG*kT*d[5mC]*dA*dT*dT*dT*dG*d[5mC]*d[5mC]*dT*dA*kG*kG*kT; antisense) [Compound 716449]”, the “YAP1 (% UTC)” value was found to be 49 % UTC.

The data set is the same for the next values; noted with them: Table 6; A-431 cells, 5,000 cells per well, free uptake, 2,000 nM modified oligonucleotide, approx. 48 hours; RTS4814; normalized to RIBOGREEN; Yap1 mRNA relative to untreated control cells.
Take “716549 (k[5mC]*k[5mC]*kA*d[5mC]*dT*dT*dT*dT*dG*d[5mC]*dA*dA*dT*kG*kT*kT; antisense) [Compound 716549]”: the “YAP1 (% UTC)” value is given as 44 % UTC.

On to “716468 (kT*k[5mC]*kA*dT*d[5mC]*dA*dG*dA*dT*dA*dA*dT*dA*kT*k[5mC]*kT; antisense) [Compound 716468]”, for which the “YAP1 (% UTC)” value was found to be 118 % UTC.

For “716381 (kT*kG*kT*d[5mC]*dT*dG*dA*dT*d[5mC]*dG*dA*dT*dG*kT*kG*kA; antisense) [Compound 716381]”, the “YAP1 (% UTC)” value is given as 35 % UTC.

Regarding “716384 (kA*kG*kG*dA*d[5mC]*d[5mC]*dT*dG*dA*dA*dG*d[5mC]*d[5mC]*kG*kA*kG; antisense) [Compound 716384]”, the “YAP1 (% UTC)” value was determined as 71 % UTC.

The data set is the same for the next values; noted with them: Table 19; A-431 cells, 5,000 cells per well, free uptake, 2,000 nM modified oligonucleotide, approx. 48 hours; RTS4814; normalized to RIBOGREEN; Yap1 mRNA as percent of untreated control.
In the case of “1075845 (kG*kT*kG*dG*dA*dA*dA*dA*dG*dT*dA*dT*dG*kA*kT*k[5mC]; antisense) [Compound 1075845]”, the “YAP1 (% UTC)” value worked out at 19 % UTC.

For the substance “1075685 (k[5mC]*kA*kT*dA*dA*dT*d[5mC]*dA*dA*dA*dG*dG*dG*kT*kG*k[5mC]; antisense) [Compound 1075685]”, the “YAP1 (% UTC)” value was 60 % UTC.

“1074949 (antisense kG*kT*kG*dA*dT*dT*dT*dT*dT*dT*d[5mC]*dT*dG*kA*kG*kT) [Compound 1074949]”: the “YAP1 (% UTC)” value came to 31 % UTC.

Still in this data set, the particulars now being: Table 20; Yap1 mRNA, percent of untreated control; 3-10-3 cEt gapmers targeting SEQ ID NO.: 1 and 2.
For the substance “1075782 (kT*kA*kT*dT*dA*dG*dG*dT*dT*dT*d[5mC]*d[5mC]*d[5mC]*kG*kT*kT; antisense) [Compound 1075782]”, the “YAP1 (% UTC)” value is 10 % UTC.

Turning to “1074982 (antisense kA*k[5mC]*k[5mC]*dT*dT*dT*dT*dA*dT*dT*dG*d[5mC]*d[5mC]*kA*kG*kT) [Compound 1074982]”, the “YAP1 (% UTC)” value amounted to 13 % UTC.

For “1075302 (k[5mC]*k[5mC]*kT*dT*dA*dA*dA*dG*d[5mC]*dT*dT*d[5mC]*d[5mC]*kA*k[5mC]*k[5mC]; antisense) [Compound 1075302]”, the “YAP1 (% UTC)” value is reported as 75 % UTC.

In the case of “1074950 (antisense kA*kT*k[5mC]*dA*dG*dG*dT*dT*dA*dA*dG*dT*dG*kA*kT*kT) [Compound 1074950]”, the “YAP1 (% UTC)” value worked out at 120 % UTC.

The same data set, now with this note: Table 21; Yap1 mRNA, percent of untreated control; 3-10-3 cEt gapmers targeting SEQ ID NO.: 1 and 2.
With “1075175 (antisense kA*k[5mC]*kT*dG*dA*dA*dA*dG*dA*dT*dT*d[5mC]*d[5mC]*kA*kT*kG) [Compound 1075175]”, the “YAP1 (% UTC)” value is listed as 99 % UTC.

Turning to “1075143 (antisense k[5mC]*k[5mC]*kT*dT*dA*dT*dT*dA*dG*dT*d[5mC]*dA*dG*kT*kT*k[5mC]) [Compound 1075143]”, the “YAP1 (% UTC)” value is listed as 2 % UTC.

As to “1074599 (antisense kG*k[5mC]*kT*dA*dA*d[5mC]*dT*d[5mC]*dA*dA*dA*dA*d[5mC]*k[5mC]*kT*kT) [Compound 1074599]”, the “YAP1 (% UTC)” value is listed as 12 % UTC.

Take “1076551 (antisense kG*kT*kG*dG*dA*dA*dT*dA*dG*d[5mC]*dA*dG*d[5mC]*k[5mC]*kA*kT) [Compound 1076551]”: the “YAP1 (% UTC)” value was determined as 67 % UTC.

For the substance “1076423 (k[5mC]*k[5mC]*kT*dG*dA*dA*d[5mC]*d[5mC]*dT*dT*d[5mC]*dT*dG*kG*kA*kT; antisense) [Compound 1076423]”, the “YAP1 (% UTC)” value is 93 % UTC.

Staying with this data set, now noted: Table 22; Yap1 mRNA as percent of untreated control; 3-10-3 cEt gapmers; single dose.
“1075336 (kG*k[5mC]*kT*dT*dA*dA*dT*dA*dA*dT*d[5mC]*dT*dA*k[5mC]*k[5mC]*kA; antisense) [Compound 1075336]”: the “YAP1 (% UTC)” value is recorded as 32 % UTC.

On to “1074344 (antisense kT*kG*kA*dG*dA*d[5mC]*dA*dT*d[5mC]*d[5mC]*d[5mC]*dG*dG*kG*kA*kG) [Compound 1074344]”, for which the “YAP1 (% UTC)” value amounted to 99 % UTC.

As to “1074984 (antisense kA*kT*k[5mC]*dA*d[5mC]*d[5mC]*dT*dT*dT*dT*dA*dT*dT*kG*k[5mC]*k[5mC]) [Compound 1074984]”, the “YAP1 (% UTC)” value stood at 31 % UTC.

The same data set, now with this note: Table 23; Yap1 mRNA as percent of untreated control; 3-10-3 cEt gapmers; single dose.
On to “1076169 (k[5mC]*kT*kA*d[5mC]*dT*dA*dT*dA*dT*d[5mC]*dT*dT*dT*kG*kG*kG; antisense) [Compound 1076169]”, for which the “YAP1 (% UTC)” value amounted to 10 % UTC.

“1074633 (antisense kG*kA*kG*dG*d[5mC]*dT*dT*dT*dT*d[5mC]*dA*dT*dA*kG*k[5mC]*kA) [Compound 1074633]”: the “YAP1 (% UTC)” value stood at 78 % UTC.

The same data set, now with this note: Table 24; Yap1 mRNA as percent of untreated control; 3-10-3 cEt gapmers targeting SEQ ID NO.: 1, and 2.
As to “1075114 (antisense kG*kT*kA*dT*dA*dA*dA*dT*dA*d[5mC]*d[5mC]*dA*dG*kG*kT*kA) [Compound 1075114]”, the “YAP1 (% UTC)” value amounted to 26 % UTC.

As for “1074890 (antisense kG*kA*kA*dG*dT*dT*dT*dA*dG*d[5mC]*d[5mC]*dT*dG*kA*kA*kG) [Compound 1074890]”, the “YAP1 (% UTC)” value came out at 58 % UTC.

As for “1074410 (antisense kT*kA*kG*dA*dG*dG*dA*dT*dT*dA*dA*dA*dG*kT*kA*kT) [Compound 1074410]”, the “YAP1 (% UTC)” value was determined as 32 % UTC.

For “1075818 (k[5mC]*kA*kT*dA*dA*d[5mC]*dT*dT*dA*dG*dA*dA*d[5mC]*k[5mC]*kA*kT; antisense) [Compound 1075818]”, the “YAP1 (% UTC)” value is 35 % UTC.

Staying with this data set, now noted: Table 25; Yap1 mRNA as percent of untreated control; 3-10-3 cEt gapmers targeting SEQ ID NO.: 1, and 2.
Take “1075211 (antisense kA*kA*kT*dA*dA*dA*dG*dG*dG*dT*d[5mC]*d[5mC]*dT*kA*kA*k[5mC]) [Compound 1075211]”: the “YAP1 (% UTC)” value turned out to be 91 % UTC.

With “1074827 (kT*kA*kA*dA*dA*dT*d[5mC]*d[5mC]*dA*d[5mC]*d[5mC]*dT*dG*kA*kG*k[5mC]; antisense) [Compound 1074827]”, the “YAP1 (% UTC)” value is listed as 39 % UTC.

“1074475 (kA*k[5mC]*k[5mC]*dA*dA*d[5mC]*d[5mC]*d[5mC]*d[5mC]*d[5mC]*d[5mC]*d[5mC]*dA*k[5mC]*k[5mC]*kG; antisense) [Compound 1074475]”: the “YAP1 (% UTC)” value turned out to be 72 % UTC.

Staying with this data set, now noted: Table 32; Yap1 mRNA, percent of untreated control; 3-10-3 cEt gapmers targeting SEQ ID NO.: 1, and 2.
On to “1075378 (antisense kA*kA*kA*dA*d[5mC]*dT*dA*dA*dT*d[5mC]*dA*dT*d[5mC]*kG*kA*kT) [compound 1075378]”, for which the “YAP1 (% UTC)” value worked out at 83 % UTC.

As to “1074194 (antisense k[5mC]*k[5mC]*kG*dG*dG*dT*d[5mC]*d[5mC]*dG*dG*dA*d[5mC]*dG*kG*k[5mC]*kG) [compound 1074194]”, the “YAP1 (% UTC)” value was 57 % UTC.

Still in this data set, the particulars now being: Table 33; Yap1 mRNA, percent of untreated control; 3-10-3 cEt gapmers targeting SEQ ID NO.: 1, and 2.
For “1075859 (antisense kA*k[5mC]*kT*dT*dA*dT*d[5mC]*dA*d[5mC]*dT*d[5mC]*dT*dG*k[5mC]*k[5mC]*k[5mC]) [compound 1075859]”, the “YAP1 (% UTC)” value was determined as 20 % UTC.

Still in this data set, the particulars now being: Yap1 mRNA as percent of untreated control; A-431 cells; 3-10-3 cEt gapmers targeting SEQ ID NO.: 1, and 2; Table 30.
Regarding “1076496 (kG*kT*kT*dA*dA*dA*dG*dA*d[5mC]*d[5mC]*dA*dA*d[5mC]*kA*k[5mC]*kA; antisense) [compound 1076496]”, the “YAP1 (% UTC)” value is 81 % UTC.

For the substance “1076560 (kT*k[5mC]*k[5mC]*dA*dA*dA*dT*dA*dT*dG*dG*d[5mC]*dA*kT*kA*k[5mC]; antisense) [compound 1076560]”, the “YAP1 (% UTC)” value came to 10 % UTC.

In the case of “1075216 (kT*kA*kT*dT*dT*dT*dA*d[5mC]*dA*d[5mC]*dG*dA*dA*k[5mC]*kT*kA; antisense) [compound 1075216]”, the “YAP1 (% UTC)” value is 55 % UTC.

On to “1076240 (kA*kT*kT*dA*dA*dA*dA*dG*d[5mC]*dA*dA*dG*dG*kT*kG*k[5mC]; antisense) [compound 1076240]”, for which the “YAP1 (% UTC)” value was 56 % UTC.

The same data set, now with this note: Yap1 mRNA as percent of untreated control; A-431 cells; 3-10-3 cEt gapmers targeting SEQ ID NO.: 1, and 2; Table 31.
On to “1074673 (antisense kA*kG*kG*d[5mC]*dA*d[5mC]*dT*d[5mC]*d[5mC]*dT*dT*d[5mC]*d[5mC]*kA*kA*kG) [compound 1074673]”, for which the “YAP1 (% UTC)” value was determined as 43 % UTC.

As for “1074385 (k[5mC]*kT*kT*d[5mC]*dA*dA*dG*dG*dT*dA*dG*dT*d[5mC]*kT*kG*kG; antisense) [compound 1074385]”, the “YAP1 (% UTC)” value is recorded as 17 % UTC.

These data come from patent US11214803B2, “Modulators of YAP1 expression” (Ionis Pharmaceuticals, Inc., priority 2019, dated 2022).
